Laboratory results: ChEMBL document CHEMBL4043165, “Synthesis, estrogen receptor binding affinity and molecular docking of pyrimidine-piperazine-chromene and -quinoline conjugates” (Bioorg Med Chem Lett, 2017)

Assays:
Type in all cases: cell-based
[1] = tested on: HEK-293T; assay: Cytotoxicity against HEK293T cells assessed as reduction in cell viability after 48 hrs by MTT assay; conditions: Homo sapiens
[2] = tested on: HEK-293T; assay: Cytotoxicity against HEK293T cells assessed as reduction in cell viability at <50 uM after 48 hrs by MTT assay; conditions: human
[3] = Modulation activity at ER in human MCF7 cells assessed as reduction in cell viability after 48 hrs by MTT assay; conditions: MCF7, 48 h
[4] = tested on: HEK-293T; assay: Cytotoxicity against HEK293T cells assessed as reduction in cell viability up to 50 uM after 48 hrs by MTT assay; conditions: human

With `COc1ccc(C2C(C#N)=C(N)Nc3cc(Oc4cc(N5CCN(CCO)CC5)nc(C)n4)ccc32)cc1` (stereo unspecified) the IC50 [1] was 62 µM, the Activity [2] was “Toxic” and the IC50 [3] was 12 µM.

With `Cc1nc(Oc2ccc3c(c2)NC(N)=C(C#N)C3c2ccccc2C)cc(N2CCN(CCO)CC2)n1` (stereo unspecified) the IC50 [1] was 57 µM, the Activity [2] was “Toxic” and the IC50 [3] was 198 µM.

For `Cc1nc(Oc2ccc3c(c2)OC(N)=C(C#N)C3c2ccc([N+](=O)[O-])cc2)cc(N2CCN(CCO)CC2)n1` (stereo unspecified), the IC50 [1] was 105 µM, the IC50 [3] was 30 µM and the Activity [4] was “Non-Toxic”.

For `Cc1nc(Oc2ccc3c(c2)OC(N)=C(C#N)C3c2ccc(F)cc2)cc(N2CCN(CCO)CC2)n1` (stereo unspecified), the IC50 [1] was 52 µM, the Activity [2] was “Toxic” and the IC50 [3] was 166 µM.

Work on `COc1cc(/C=C/C(=O)CC(=O)/C=C/c2ccc(O)c(OC)c2)ccc1O` [CURCUMIN] yielded an IC50 [1] greater than 400 µM.

For `Cc1nc(Oc2ccc3c(c2)OC(N)=C(C#N)C3c2ccc(Cl)cc2)cc(N2CCN(CCO)CC2)n1` (stereo unspecified), the IC50 [1] was 18 µM, the Activity [2] was “Toxic” and the IC50 [3] was 73 µM.

For `Cc1nc(Oc2ccc3c(c2)OC(N)=C(C#N)C3c2ccccc2C)cc(N2CCN(CCO)CC2)n1` (stereo unspecified), the IC50 [1] was 56 µM, the Activity [2] was “Toxic” and the IC50 [3] was 61 µM.

In the case of `Cc1nc(Oc2ccc3c(c2)OC(N)=C(C#N)C3c2c(Cl)cccc2Cl)cc(N2CCN(CCO)CC2)n1` (stereo unspecified), the IC50 [1] is reported as 51 µM, the Activity [2] is reported as “Toxic” and the IC50 [3] is reported as 136 µM.

For `Cc1nc(Oc2ccc3c(c2)NC(N)=C(C#N)C3c2ccc(Cl)cc2)cc(N2CCN(CCO)CC2)n1` (stereo unspecified), the IC50 [1] was 95 µM, the Activity [2] was “Toxic” and the IC50 [3] was 170 µM.

With `COc1cccc(C2C(C#N)=C(N)Nc3cc(Oc4cc(N5CCN(CCO)CC5)nc(C)n4)ccc32)c1` (stereo unspecified) the IC50 [1] was 39 µM, the Activity [2] was “Toxic” and the IC50 [3] was 166 µM.

With `Cc1nc(Oc2ccc3c(c2)NC(N)=C(C#N)C3c2ccccc2)cc(N2CCN(CCO)CC2)n1` (stereo unspecified) the IC50 [1] was 141 µM, the IC50 [3] was 65 µM and the Activity [4] was “Non-Toxic”.

For `Cc1nc(Oc2ccc3c(c2)NC(N)=C(C#N)C3c2c(Cl)cccc2Cl)cc(N2CCN(CCO)CC2)n1` (stereo unspecified), the IC50 [1] was 62 µM, the Activity [2] was “Toxic” and the IC50 [3] was 102 µM.

For `Cc1nc(Oc2ccc3c(c2)NC(N)=C(C#N)C3c2ccc(F)cc2)cc(N2CCN(CCO)CC2)n1` (stereo unspecified), the IC50 [1] was 72 µM, the Activity [2] was “Toxic” and the IC50 [3] was 48 µM.

For `Cc1nc(Oc2ccc3c(c2)NC(N)=C(C#N)C3c2ccc(Br)cc2)cc(N2CCN(CCO)CC2)n1` (stereo unspecified), the IC50 [1] was 62 µM, the Activity [2] was “Toxic” and the IC50 [3] was 193 µM.

With `Cc1nc(Oc2ccc3c(c2)NC(N)=C(C#N)C3c2ccccc2Cl)cc(N2CCN(CCO)CC2)n1` (stereo unspecified) the IC50 [1] was 70 µM, the Activity [2] was “Toxic” and the IC50 [3] was 190 µM.

With `Cc1nc(Oc2ccc3c(c2)OC(N)=C(C#N)C3c2ccccc2)cc(N2CCN(CCO)CC2)n1` (stereo unspecified) the IC50 [1] was greater than 200 µM, the IC50 [3] was 92 µM and the Activity [4] was “Non-Toxic”.

With `Cc1nc(Oc2ccc3c(c2)OC(N)=C(C#N)C3c2ccccc2Cl)cc(N2CCN(CCO)CC2)n1` (stereo unspecified) the IC50 [1] was 79 µM, the Activity [2] was “Toxic” and the IC50 [3] was 119 µM.

In the case of `COc1ccc(C2C(C#N)=C(N)Oc3cc(Oc4cc(N5CCN(CCO)CC5)nc(C)n4)ccc32)cc1` (stereo unspecified), the IC50 [1] is reported as 55 µM, the Activity [2] is reported as “Toxic” and the IC50 [3] is reported as 104 µM.

For `Cc1ccc(C2C(C#N)=C(N)Oc3cc(Oc4cc(N5CCN(CCO)CC5)nc(C)n4)ccc32)cc1` (stereo unspecified), the IC50 [1] was greater than 200 µM, the IC50 [3] was 16 µM and the Activity [4] was “Non-Toxic”.

In the case of `Cc1ccc(C2C(C#N)=C(N)Nc3cc(Oc4cc(N5CCN(CCO)CC5)nc(C)n4)ccc32)cc1` (stereo unspecified), the IC50 [1] is reported as 140 µM, the IC50 [3] is reported as 48 µM and the Activity [4] is reported as “Non-Toxic”.

In the case of `Cc1nc(Oc2ccc3c(c2)OC(N)=C(C#N)C3c2ccc(Br)cc2)cc(N2CCN(CCO)CC2)n1` (stereo unspecified), the IC50 [1] is reported as 19 µM, the Activity [2] is reported as “Toxic” and the IC50 [3] is reported as 91 µM.
